This is an account of results in ChEMBL document CHEMBL2074360, “Sequence analysis and functional characterization of the 5'-flanking region of the rat multidrug resistance protein 2 (mrp2) gene” (Biochem Biophys Res Commun, 1998).

In data set [1] the target is T1, ATP-binding cassette sub-family C member 2 (Rattus norvegicus, UniProt Q63120). The data set can be described thus: TP_TRANSPORTER: Northern blot from H4IIE rat hepatoma cells. Format: functional, cell-based.
Data set [2] concerns the target T1, ATP-binding cassette sub-family C member 2. The data set can be described thus: TP_TRANSPORTER: Western blot, H4IIE rat hepatoma cells. The class given is functional, cell-based.

T1 sequence (Q63120 whole entry): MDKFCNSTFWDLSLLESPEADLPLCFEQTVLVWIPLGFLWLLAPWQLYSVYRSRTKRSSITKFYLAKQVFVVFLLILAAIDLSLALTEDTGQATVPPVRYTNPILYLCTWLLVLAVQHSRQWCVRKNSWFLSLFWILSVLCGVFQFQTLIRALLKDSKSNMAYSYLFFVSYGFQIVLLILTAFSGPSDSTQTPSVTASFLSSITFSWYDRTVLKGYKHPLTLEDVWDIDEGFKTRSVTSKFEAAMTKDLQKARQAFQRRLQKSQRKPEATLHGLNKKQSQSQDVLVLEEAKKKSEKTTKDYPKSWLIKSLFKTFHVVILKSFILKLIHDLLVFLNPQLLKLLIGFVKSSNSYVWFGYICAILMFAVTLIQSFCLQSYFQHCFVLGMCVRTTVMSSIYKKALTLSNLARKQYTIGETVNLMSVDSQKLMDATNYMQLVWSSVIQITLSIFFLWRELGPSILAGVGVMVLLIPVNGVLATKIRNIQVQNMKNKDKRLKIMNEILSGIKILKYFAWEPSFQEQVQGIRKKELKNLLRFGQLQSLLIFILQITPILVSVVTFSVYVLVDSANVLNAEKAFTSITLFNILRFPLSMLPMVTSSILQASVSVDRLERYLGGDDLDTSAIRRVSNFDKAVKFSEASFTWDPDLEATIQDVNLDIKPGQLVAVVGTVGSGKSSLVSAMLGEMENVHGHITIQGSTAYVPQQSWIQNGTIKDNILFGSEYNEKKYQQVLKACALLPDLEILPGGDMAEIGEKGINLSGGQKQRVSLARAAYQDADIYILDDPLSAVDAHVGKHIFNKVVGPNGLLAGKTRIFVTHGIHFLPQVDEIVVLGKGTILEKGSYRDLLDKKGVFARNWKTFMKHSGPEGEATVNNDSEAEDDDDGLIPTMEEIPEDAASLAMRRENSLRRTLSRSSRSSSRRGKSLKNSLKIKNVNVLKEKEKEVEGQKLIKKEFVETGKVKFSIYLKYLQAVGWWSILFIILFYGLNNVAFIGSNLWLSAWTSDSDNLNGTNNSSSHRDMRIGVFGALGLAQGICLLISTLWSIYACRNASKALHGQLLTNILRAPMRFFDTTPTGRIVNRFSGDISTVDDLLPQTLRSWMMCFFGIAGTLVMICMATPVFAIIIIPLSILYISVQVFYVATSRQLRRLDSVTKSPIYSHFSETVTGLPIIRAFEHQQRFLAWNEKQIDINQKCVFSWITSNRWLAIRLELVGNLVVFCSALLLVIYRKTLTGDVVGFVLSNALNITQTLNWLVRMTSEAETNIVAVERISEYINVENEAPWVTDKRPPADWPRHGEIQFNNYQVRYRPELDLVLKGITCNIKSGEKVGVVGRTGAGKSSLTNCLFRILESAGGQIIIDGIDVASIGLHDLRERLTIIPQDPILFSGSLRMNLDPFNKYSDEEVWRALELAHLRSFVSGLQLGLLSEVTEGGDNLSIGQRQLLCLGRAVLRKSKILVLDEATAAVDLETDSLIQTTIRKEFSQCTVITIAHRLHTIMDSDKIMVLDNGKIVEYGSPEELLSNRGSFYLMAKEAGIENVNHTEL

On to `C#C[C@]1(O)CC[C@H]2[C@@H]3CCc4cc(O)ccc4[C@H]3CC[C@@]21C` [ETHINYL ESTRADIOL], for which the Activity result in data set [1] and in data set [2] was “inducer [+]” in each case.
As to `CCC1(c2ccccc2)C(=O)NC(=O)NC1=O` [PHENOBARBITAL], the Activity entry in data set [1] and in data set [2] was “inducer [+]” each time.
